Test results published in patent US20050032873A1, “3-Amino chroman and 2-amino tetralin derivatives” (Wyeth, priority 2003, published 2005).
Where two headings read alike, the source gives them in different places. One block for each compound: values may come before it.

What was measured:
serotonin transporter = target: T1, serotonin transporter (Rattus norvegicus, UniProt P31652); assay: 5-HT transporter affinity: displacement of 3H-paroxetine from male rat cortical membranes; format: binding; settings: displacement of 3H-paroxetine, male rat cortical membranes
T1 construct: displace ^3H-paroxetine from male rat cortical membranes; from tissue; host or cells: male rat cortical membranes

[1] = target: T2, cloned human 5-HT1A receptors (Homo sapiens, UniProt P08908); assay: 35S-GTPγS binding assay, 5-HT1A function; format: biochemical; settings: for EC50: agonist potency; for IC50: antagonist potency, reversal of 8-OH-DPAT, read-out: 5-HT1A Function GTPγS IC50
T2 construct: expressed in transfected cells
T2 sequence (P08908 1-422): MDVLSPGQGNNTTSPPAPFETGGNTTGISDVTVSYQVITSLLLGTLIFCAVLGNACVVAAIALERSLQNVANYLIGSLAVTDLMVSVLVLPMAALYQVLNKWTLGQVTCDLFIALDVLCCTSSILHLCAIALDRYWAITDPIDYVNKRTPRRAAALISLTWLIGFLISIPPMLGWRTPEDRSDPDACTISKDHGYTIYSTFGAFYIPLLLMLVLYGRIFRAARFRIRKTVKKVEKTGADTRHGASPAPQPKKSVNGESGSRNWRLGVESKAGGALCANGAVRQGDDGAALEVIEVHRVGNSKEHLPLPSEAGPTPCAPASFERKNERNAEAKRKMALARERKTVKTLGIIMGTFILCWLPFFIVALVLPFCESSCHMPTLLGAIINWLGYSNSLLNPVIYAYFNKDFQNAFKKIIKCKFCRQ

5-HT1A receptor [2] = target: T3, 5-HT1A receptor (Homo sapiens, UniProt P08908); assay: 5-HT1A receptor affinity: displacement of [3H] 8-OH-DPAT; format: binding; parameters: expressed in transfected cells; settings: for inhibition at 1 µM: read-out: 5-HT1A Receptor Affinity, % @ 1 μM; for Ki: displacement of [3H] 8-OH-DPAT, CHO cells stably transfected with human 5-HT1A receptors, read-out: 5-HT1A Receptor Affinity Ki
T3 sequence (P08908 1-422): T2 sequence (P08908 1-422)

5-HT1A receptor [3] = target: T3, 5-HT1A receptor; assay: cAMP accumulation assay, 5-HT1A function; format: cell-based; settings: for Emax / 5-HT1A Function cAMP (Emax): in brackets after EC50 or IC50; for Emax: read-out: 5-HT1A Function cAMP (Emax); for EC50: cells marked EC50 (agonist)
Description: The agonist or antagonist activity at 5-HT1A receptors was established by using two different assays. […] Agonists produce an increase in binding whereas antagonists produce no increase but rather reverse the effects of the standard agonist 8-OH-DPAT. The test compound's maximum stimulatory effect is represented as the Emax, while its potency is defined by the EC50. The test compound's maximum inhibitory effect is represented as the Imax, while its potency is defined by the IC50. The second assay measured cAMP accumulation upon binding of the ligand to the 5-HT1A receptor. […] The test compound's maximum stimulatory or inhibitory effect is represented as the Emax while its potency is defined by either IC50 for an antagonist or EC50 for an agonist. [^3H]-8-OH-DPAT was used to determine maximum agonist or antagonist response in both functional assays.

[4] = 5-HT Transporter Affinity Ki (nM)
[5] = maximum stimulatory effect, in brackets after EC50, read-out: 5-HT1A Function GTPγS (Emax)
[6] = read-out: 5-HT Transporter Affinity Ki
[7] = maximum inhibitory effect, in brackets after IC50
[8] = maximum inhibitory effect, in brackets after IC50, read-out: 5-HT1A Function GTPγS (Imax)

T1 sequence (P31652 whole entry): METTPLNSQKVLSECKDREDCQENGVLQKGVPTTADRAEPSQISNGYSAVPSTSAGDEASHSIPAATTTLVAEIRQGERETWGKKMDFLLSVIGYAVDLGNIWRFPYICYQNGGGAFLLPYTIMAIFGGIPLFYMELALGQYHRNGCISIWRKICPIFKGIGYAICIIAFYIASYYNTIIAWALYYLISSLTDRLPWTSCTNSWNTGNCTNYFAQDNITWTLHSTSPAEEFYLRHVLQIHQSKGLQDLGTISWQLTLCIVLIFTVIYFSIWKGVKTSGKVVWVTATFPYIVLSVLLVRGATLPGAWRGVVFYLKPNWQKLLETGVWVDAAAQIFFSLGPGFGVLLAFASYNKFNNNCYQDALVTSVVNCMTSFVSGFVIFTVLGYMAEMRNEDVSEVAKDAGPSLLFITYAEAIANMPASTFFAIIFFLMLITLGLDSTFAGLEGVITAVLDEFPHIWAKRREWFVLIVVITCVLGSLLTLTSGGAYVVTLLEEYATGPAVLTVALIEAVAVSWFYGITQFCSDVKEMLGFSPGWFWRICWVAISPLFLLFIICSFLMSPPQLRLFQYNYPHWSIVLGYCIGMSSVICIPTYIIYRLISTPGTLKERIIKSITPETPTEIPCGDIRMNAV

Structure (SMILES): COc1cccc2c1CC(N[C@H]1CC[C@@H](c3c[nH]c4ccc(C#N)cc43)CC1)CO2 (relative stereo) [Compound 180a, 3-[(1,4-cis)-4-(5-Methoxy-chroman-3-ylamino)-cyclohexyl]-1H-indole-5-carbonitrile]
Ki (serotonin transporter; [4]): 13 nM
EC50 [1]: 4230 nM
Emax [1, 5]: 100%
inhibition at 1 µM (5-HT1A receptor [2]): 19%

Structure (SMILES): COc1cccc2c1CC(N[C@H]1CC[C@H](c3c[nH]c4ccc(C#N)cc43)CC1)CO2 (relative stereo) [Compound 180b, 3-[(1,4-trans)-4-(5-Methoxy-chroman-3-ylamino)-cyclohexyl]-1H-indole-5-carbonitrile]
Ki (serotonin transporter; [4]): 2.46 nM
EC50 [1]: 925 nM
Emax [1, 5]: 50.5%
inhibition at 1 µM (5-HT1A receptor [2]): 20%

Ki (serotonin transporter; [6]): 26 nM
EC50 [1]: 40000 nM
Emax [1, 5]: 79.4%
inhibition at 1 µM (5-HT1A receptor [2]): 37%
Structure (SMILES): COc1cccc2c1CC(N[C@H]1CC[C@@H](c3c[nH]c4ccc(F)cc43)CC1)CO2 (relative stereo) [Compound 181a, cis-N-[4-(5-fluoro-1H-indol-3-yl)cyclohexyl]-5-methoxychroman-3-amine]

Ki (serotonin transporter; [6]): 152 nM
IC50 [1]: 6000 nM
5-HT1A Function GTPγS (Imax) [1, 7]: 13%
Structure (SMILES): CCCN(C(C)CCc1c[nH]c2ccc(F)cc12)C1COc2c(F)ccc(C(N)=O)c2C1 (single isomer, unassigned) [Compound 12d, 8-fluoro-3-[[3-(5-fluoro-1H-indol-3-yl)-1-methylpropyl](propyl)amino]-3,4-dihydro-2H-chromene-5-carboxamide]

Ki (serotonin transporter; [6]): 112 nM
Structure (SMILES): CCCN(C(C)CCc1c[nH]c2ccc(C#N)cc12)C1COc2c(F)ccc(C(N)=O)c2C1 (single isomer, unassigned) [Compound 13d, 3-[[3-(5-cyano-1H-indol-3-yl)-1-methylpropyl](propyl)amino]-8-fluoro-3,4-dihydro-2H-chromene-5-carboxamide]

Ki (serotonin transporter; [6]): 217 nM
Ki (5-HT1A receptor [2]): 88.2 nM
Structure (SMILES): CC(CCc1c[nH]c2c(F)cc(F)cc12)N(CC1CC1)C1COc2c(F)ccc(C(N)=O)c2C1 (single isomer, unassigned) [Compound 154b, 3-{(cyclopropylmethyl)[3-(5,7-difluoro-1H-indol-3-yl)-1-methylpropyl]amino}-8-fluorochromane-5-carboxamide]

Structure (SMILES): NC(=O)c1ccc(F)c2c1CC(N(CCCc1c[nH]c3ccc(F)cc13)C1CCC1)CO2 (single isomer, unassigned; (+)) [Compound 4a, (+)-3-{cyclobutyl[3-(5-fluoro-1H-indol-3-yl)propyl]amino}-8-fluorochromane-5-carboxamide]
Ki (serotonin transporter; [6]): 4.93 nM
Emax (5-HT1A receptor [3]): 0%

Structure (SMILES): NC(=O)c1ccc(F)c2c1CC(N(CCCc1c[nH]c3ccc(F)cc13)CC1CC1)CO2 (single isomer, unassigned; (+)) [Compound 5b, (+)-3-{(cyclopropylmethyl)[3-(5-fluoro-1H-indol-3-yl)propyl]amino}-8-fluorochromane-5-carboxamide]
Ki (serotonin transporter; [6]): 3.7 nM
5-HT1A Function GTPγS (Imax) [1, 7]: 82%
Emax [1, 5]: 18%
5-HT1A Function cAMP (Emax) (5-HT1A receptor [3]): 69%

Structure (SMILES): NC(=O)c1ccc(F)c2c1CC(NCCCc1c[nH]c3ccc(F)cc13)CO2 (single isomer, unassigned; (-)) [Compound 1b, (−)-8-fluoro-3-{[3-(5-fluoro-1H-indol-3-yl)propyl]amino}chromane-5-carboxamide]
Ki (serotonin transporter; [6]): 76 nM
inhibition at 1 µM (5-HT1A receptor [2]): 47%

Structure (SMILES): NC(=O)c1ccc(F)c2c1CC(N(CCCc1c[nH]c3ccc(F)cc13)C1CCC1)CO2 (single isomer, unassigned; (-)) [Compound 4b, (−)-3-{cyclobutyl[3-(5-fluoro-1H-indol-3-yl)propyl]amino}-8-fluorochromane-5-carboxamide]
Ki (serotonin transporter; [6]): 1.53 nM
5-HT1A Function cAMP (Emax) (5-HT1A receptor [3]): 0%

Structure (SMILES): NC(=O)c1ccc(F)c2c1CC(N(CCCc1c[nH]c3ccc(F)cc13)CC1CC1)CO2 (single isomer, unassigned; (-)) [Compound 5a, (−)-3-{(cyclopropylmethyl)[3-(5-fluoro-1H-indol-3-yl)propyl]amino}-8-fluorochromane-5-carboxamide]
Ki (serotonin transporter; [6]): 4.1 nM
Emax [1, 8]: 100%
5-HT1A Function cAMP (Emax) (5-HT1A receptor [3]): 0%

Structure (SMILES): NC(=O)c1ccc(F)c2c1CC(N(CCCc1c[nH]c3ccc(F)cc13)C1CCC1)CO2 (centres unmarked) [Compound 4, 3-{cyclobutyl[3-(5-fluoro-1H-indol-3-yl)propyl]amino}-8-fluorochromane-5-carboxamide]
Ki (serotonin transporter; [6]): 2.6 nM
Emax (5-HT1A receptor [3]): 0%

Structure (SMILES): NC(=O)c1ccc(F)c2c1CC(N(CCCc1c[nH]c3ccc(F)cc13)CC1CC1)CO2 (centres unmarked) [Compound 5, 3-{(cyclopropylmethyl)[3-(5-fluoro-1H-indol-3-yl)propyl]amino}-8-fluorochromane-5-carboxamide]
Ki (serotonin transporter; [6]): 3.6 nM
Emax [1, 8]: 88.2%
Emax [1, 5]: 28.4%
Emax (5-HT1A receptor [3]): 0%

IC50 [1]: 668 nM
Emax [1, 8]: 56%
Ki (5-HT1A receptor [2]): 11.7 nM
EC50 (5-HT1A receptor [3]): 12.3 nM
Emax (5-HT1A receptor [3]): 61%
Structure (SMILES): COc1cccc2c1CC(N(CCCCc1c[nH]c3ccc(F)cc13)C1CCC1)CO2 (centres unmarked) [Compound 36, N-cyclobutyl-N-[4-(5-fluoro-1H-indol-3-yl)butyl]-N-(5-methoxy-3,4-dihydro-2H-chromen-3-yl)amine]

5-HT1A Function GTPγS (Emax) ([1]; maximum stimulatory effect, in brackets after EC50): 85%
Structure (SMILES): COC(=O)c1ccc(F)c2c1CC(NCCCc1c[nH]c3ccc(F)cc13)CO2 (centres unmarked) [Compound 54, Methyl 8-fluoro-3-{[3-(5-fluoro-1H-indol-3-yl)propyl]amino}chromane-5-carboxylate]

Ki (serotonin transporter; [6]): 15.1 nM
inhibition at 1 µM (5-HT1A receptor [2]): 3%
Structure (SMILES): O=C(NCc1ccccc1)c1ccc(F)c2c1CC(N(CCCc1c[nH]c3ccc(F)cc13)C1CCC1)CO2 (centres unmarked) [Compound 69, N-benzyl-3-{cyclobutyl[3-(5-fluoro-1H-indol-3-yl)propyl]amino}-8-fluorochromane-5-carboxamide]

Ki (serotonin transporter; [6]): 641 nM
inhibition at 1 µM (5-HT1A receptor [2]): 20%
Structure (SMILES): NC(=O)c1ccc(F)c2c1CC(N(CCCc1c[nH]c3ccc(F)cc13)Cc1ccccc1)CO2 (centres unmarked) [Compound 74, 3-{benzyl[3-(5-fluoro-1H-indol-3-yl)propyl]amino}-8-fluorochromane-5-carboxamide]

Structure (SMILES): CNC(=O)c1ccc(F)c2c1CC(NCCc1c[nH]c3ccc(F)cc13)CO2 (centres unmarked) [Compound 84, 8-fluoro-3-{[2-(5-fluoro-1H-indol-3-yl)ethyl]amino}-N-methylchromane-5-carboxamide]
Ki (serotonin transporter; [6]): 83 nM
inhibition at 1 µM (5-HT1A receptor [2]): 0%

Ki (serotonin transporter; [6]): 4050 nM
Ki (5-HT1A receptor [2]): 16.7 nM
Structure (SMILES): COc1ccc2[nH]cc(CCCNC3COc4c(F)ccc(C(N)=O)c4C3)c2c1 (centres unmarked) [Compound 104, 8-fluoro-3-{[3-(5-methoxy-1H-indol-3-yl)propyl]amino}chromane-5-carboxamide]

Ki (serotonin transporter; [6]): 69 nM
Ki (5-HT1A receptor [2]): 27.7 nM
Structure (SMILES): NC(=O)c1ccc(F)c2c1CC(NCCCc1c[nH]c3c(Cl)cccc13)CO2 (centres unmarked) [Compound 109, 3-{[3-(7-chloro-1H-indol-3-yl)propyl]amino}-8-fluorochromane-5-carboxamide]

Ki (serotonin transporter; [6]): 71 nM
inhibition at 1 µM (5-HT1A receptor [2]): 0%
Structure (SMILES): NC(=O)c1ccc(F)c2c1OCC(N(CCCc1c[nH]c3ccc(F)cc13)C1CCC1)C2 (centres unmarked) [Compound 122, 3-{cyclobutyl[3-(5-fluoro-1H-indol-3-yl)propyl]amino}-5-fluorochromane-8-carboxamide]

Ki (serotonin transporter; [6]): 17.1 nM
inhibition at 1 µM (5-HT1A receptor [2]): 0%
Structure (SMILES): NC(=O)c1ccc(F)c2c1OCC(N(CCCCc1c[nH]c3ccc(F)cc13)C1CCC1)C2 (centres unmarked) [Compound 126, 3-{cyclobutyl[4-(5-fluoro-1H-indol-3-yl)butyl]amino}-5-fluorochromane-8-carboxamide]

Ki (serotonin transporter; [6]): 162 nM
inhibition at 1 µM (5-HT1A receptor [2]): 49%
Structure (SMILES): NC(=O)c1ccc(F)c2c1OCC(N(CCCc1c[nH]c3c(F)cc(F)cc13)C1CCC1)C2 (centres unmarked) [Compound 131, 3-{cyclobutyl[3-(5,7-difluoro-1H-indol-3-yl)propyl]amino}-5-fluorochromane-8-carboxamide]

Ki (serotonin transporter; [6]): 611 nM
inhibition at 1 µM (5-HT1A receptor [2]): 46%
Structure (SMILES): NC(=O)c1ccc(F)c2c1CC(NCCCn1ccc3ccccc31)CO2 (centres unmarked) [Compound 184, 8-Fluoro-3-{[3-(1H-indol-1-yl)propyl]amino}chromane-5-carboxamide]

Structure (SMILES): CCCN(CCCCn1ccc2cccc(F)c21)C1COc2c(F)ccc(C(N)=O)c2C1 (centres unmarked) [Compound 190, 8-Fluoro-3-[[4-(7-fluoro-1H-indol-1-yl)butyl](propyl)amino]chromane-5-carboxamide]
IC50 [1]: 3600 nM
Emax [1, 8]: 84%
Ki (5-HT1A receptor [2]): 16.6 nM
EC50 (5-HT1A receptor [3]): 321 nM
Emax (5-HT1A receptor [3]): 59%

Structure (SMILES): NC(=O)c1ccc(F)c2c1CC(N(CCCCn1ccc3c(F)cccc31)C1CCC1)CO2 (centres unmarked) [Compound 204, 3-{Cyclobutyl[4-(4-fluoro-1H-indol-1-yl)butyl]amino}-8-fluorochromane-5-carboxamide]
Ki (serotonin transporter; [6]): 288 nM
Ki (5-HT1A receptor [2]): 17.4 nM
